According to patent US6172056A, “Pharmaceutical compositions and method for prophylaxis and therapy of radical-mediated cell damage” (Jenapharm GmbH & Co. KG, priority 1993, dated 2001):
pIC50: −log10 of the molar value.

What was measured:
[1] = test system: lipid peroxidation (synaptosomal membrane fraction, Fenton's reagent); assay: In vitro inhibition of lipid peroxidation, thiobarbituric acid test; format: biochemical; settings: 30 min at 37° C.
peroxidation = settings: literature statement; cited from earlier work
[2] = test system: LDL, isolated from human whole blood; assay: In vitro inhibition of LDL oxidation (Esterbauer et al), CuSO4-induced; settings: 5 μmol test compound, 10 μmol CuSO4
estrogen receptor = target: T1, estrogen receptor (Oryctolagus cuniculus, UniProt G1SML6); assay: Estrogen receptor binding, competitive with 3H-ethinyl estradiol in uterine cytosol; settings: RBA relative to 17β-estradiol, infantile rabbit uterine cytosol, 0° C.
T1 construct: in uterine cytosol of the infantile rabbit; from tissue; host or cells: uterine cytosol of infantile rabbit
T1 sequence (G1SML6 1-598): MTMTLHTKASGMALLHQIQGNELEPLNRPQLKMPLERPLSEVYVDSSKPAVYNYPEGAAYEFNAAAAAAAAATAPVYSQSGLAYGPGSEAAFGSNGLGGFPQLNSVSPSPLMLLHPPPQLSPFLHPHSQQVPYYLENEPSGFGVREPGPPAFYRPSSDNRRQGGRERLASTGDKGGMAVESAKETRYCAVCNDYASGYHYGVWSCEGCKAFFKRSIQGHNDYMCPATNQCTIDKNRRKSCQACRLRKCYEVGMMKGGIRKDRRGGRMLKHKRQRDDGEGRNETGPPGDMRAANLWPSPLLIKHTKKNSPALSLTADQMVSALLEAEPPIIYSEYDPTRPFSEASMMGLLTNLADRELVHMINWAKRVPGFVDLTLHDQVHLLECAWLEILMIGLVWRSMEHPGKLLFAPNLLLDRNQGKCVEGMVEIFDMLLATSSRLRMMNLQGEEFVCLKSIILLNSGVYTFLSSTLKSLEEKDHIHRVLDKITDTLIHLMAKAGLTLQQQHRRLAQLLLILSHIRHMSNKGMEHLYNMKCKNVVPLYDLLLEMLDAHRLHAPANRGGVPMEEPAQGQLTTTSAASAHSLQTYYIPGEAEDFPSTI
Method: Statements about estrogen affinity are made by measuring the estrogen receptor binding.
Measuring the estrogen receptor binding is done by competitive binding of the ^3 H-labelled synthetic estrogen ethinyl estradiol and of the compounds to be tested in uterine cytosol of the infantile rabbit at 0° C. Reaction equilibrium and receptor saturation are the goal.
With the statement about the RBA values, the estrogen receptor affinity of the particular compound is characterized; taking into account certain prerequisites for in vitro investigations (such as a free 30H group), it is a measure for estrogen affinity (again, see Table 1).

Molecule | pIC50 [1] | Inhibition of peroxidation in vitro and in vivo (peroxidation) | LDL oxidation inhibition (prolongation of the lag phase in min) [2] [min] | Relative binding affinity to estrogen receptor (estrogen receptor) [%]
COc1cc2c(cc1O)[C@H]1CC[C@]3(C)[C@@H](O)CC[C@H]3[C@@H]1CC2 [2-Hydroxyestradiol-3-methyl ether] | 5.49 | – | – | –
C[C@]12CC[C@@H]3c4cc(O)c(O)cc4CC[C@H]3[C@@H]1CC[C@@H]2O [2-hydroxyestradiol] | – | inhibit peroxidation in vitro and in vivo | – | –
C[C@]12CC=C3c4ccc(O)cc4CC[C@H]3[C@@H]1CC[C@@]21CO1 [3-Hydroxy-1,3,5(10),9(11)-estratetraene-17S-spirooxirane] | 6.09 | – | 210 | –
C[C@]12CC[C@@H]3c4ccc(O)cc4CC[C@H]3[C@@H]1CC[C@@]21CO1 [3-Hydroxy-1,3,5(10)-estratriene-17S-spirooxirane] | 5.39 | – | 170 | –
C[C@]12CCc3c(ccc4cc(O)ccc34)[C@@H]1CC[C@H]2O [6,8-Didehydro-17α-estradiol] | 5.29 | – | – | –
C[C@]12CC[C@@H]3c4ccc(O)cc4C=C[C@H]3[C@@H]1C[C@@H](O)[C@@H]2O [6-Dehydroestriol] | 4.34 | – | – | 7.9
C[C@]12CCC3=C(CCc4cc(O)ccc43)[C@@H]1CC[C@H]2O [8-Dehydro-17α-estradiol] | 5.39 | – | – | –
C[C@]12CCC3=C(CCc4cc(O)ccc43)[C@@H]1CC[C@@H]2O [8-Dehydroestradiol] | 6.00 | – | 120 | 59.6
C[C@]12CC=C3c4ccc(O)cc4CC[C@H]3[C@@H]1C[C@@H](O)[C@@H]2O [9(11)-dehydroestriol] | 4.97 | – | – | 7.5
C[C@]12CC[C@@H]3c4ccc(O)cc4CC[C@H]3[C@@]13C[C@H]3C[C@@H]2O [14α,15α-Methylene estradiol] | 5.00 to 5.30 | – | – | –
C[C@]12CCC3=C(CCc4cc(O)ccc43)[C@@]13C[C@H]3C[C@@H]2O [14α,15α-Methylene-8-dehydroestradiol] | 6.05 | – | – | –
C[C@]12CCC3=C(CCc4cc(O)ccc43)[C@]13C[C@@H]3C[C@@H]2O [14β,15β-Methylene-8 dehydroestradiol, 14β,15β-methylene-8-dehydroestradiol] | 5.72 | – | – | –
C[C@]12CC[C@@H]3c4ccc(O)cc4CC[C@H]3[C@@H]1CC[C@H]2O [17α-Estradiol] | 5.05 | – | – | –
C[C@]12CC[C@@H]3c4ccc(O)cc4CC[C@H]3[C@@H]1CC[C@@H]2O [17β-Estradiol, reference compound] | 4.91 | inhibit peroxidation in vitro and in vivo | 110 | –
CC(CO)[C@H]1CC[C@H]2[C@@H]3CCc4cc(O)ccc4[C@H]3CC[C@]12C (stereo partly shown) [20-hydroxymethyl-3-hydroxy-19-norpregna-1,3,5(10)-triene] | 4.84 | – | – | 22.5
Cc1c(C)c2c(c(C)c1O)CCC(C)(CN1CCN(c3cc(N4CCCC4)nc(N4CCCC4)n3)CC1)O2 (stereo not shown) [Compound U-78517F, reference compound] | 5.74 | – | 70 | –
C[C@]12CC[C@@H]3c4ccc(O)cc4CC[C@H]3[C@@H]1C[C@@H](O)[C@@H]2O [Estriol, reference compound] | 3.91 | inhibit peroxidation in vitro and in vivo | 45 | 10.3
C[C@@]12CC[C@H]3c4ccc(O)cc4CC[C@@H]3[C@H]1CC[C@H]2O [ent-Estradiol] | 5.06 | – | 120 | –
C[C@]12CC[C@@H]3c4ccc(O)cc4CC[C@H]3[C@@H]1CCC2=O [estrone] | – | inhibit peroxidation in vitro and in vivo | – | –
Vitamin E [reference compound] | 3.88 | – | – | –
